Publication PMC3961306, “Comparison of the Cancer Gene Targeting and Biochemical Selectivities of All Targeted Kinase Inhibitors Approved for Clinical Use” (PLoS ONE, 2014)

Key:
Experiment in all cases: Kinase profiling in a biochemical assay panel (mobility shift assays and ELISA), %-inhibition at 1 μM; selectivity entropy
[1] = target: panel of more than 300 wild-type and mutant kinases (313 kinase panel) (Homo sapiens, UniProt P06241)
[2] = target: panel of more than 300 wild-type and mutant kinases (313 kinase panel) (Homo sapiens, UniProt Q16539)
[3] = target: panel of more than 300 wild-type and mutant kinases (313 kinase panel) (Homo sapiens, UniProt P22455, V550E); settings: kinase FGFR4(V550E); compound at 1 μM
[4] = target: panel of more than 300 wild-type and mutant kinases (313 kinase panel) (Homo sapiens, UniProt P23458)
[5] = target: T1, panel of more than 300 wild-type and mutant kinases (313 kinase panel) (Homo sapiens, UniProt P52333)
T1 sequence (P52333 1-1124): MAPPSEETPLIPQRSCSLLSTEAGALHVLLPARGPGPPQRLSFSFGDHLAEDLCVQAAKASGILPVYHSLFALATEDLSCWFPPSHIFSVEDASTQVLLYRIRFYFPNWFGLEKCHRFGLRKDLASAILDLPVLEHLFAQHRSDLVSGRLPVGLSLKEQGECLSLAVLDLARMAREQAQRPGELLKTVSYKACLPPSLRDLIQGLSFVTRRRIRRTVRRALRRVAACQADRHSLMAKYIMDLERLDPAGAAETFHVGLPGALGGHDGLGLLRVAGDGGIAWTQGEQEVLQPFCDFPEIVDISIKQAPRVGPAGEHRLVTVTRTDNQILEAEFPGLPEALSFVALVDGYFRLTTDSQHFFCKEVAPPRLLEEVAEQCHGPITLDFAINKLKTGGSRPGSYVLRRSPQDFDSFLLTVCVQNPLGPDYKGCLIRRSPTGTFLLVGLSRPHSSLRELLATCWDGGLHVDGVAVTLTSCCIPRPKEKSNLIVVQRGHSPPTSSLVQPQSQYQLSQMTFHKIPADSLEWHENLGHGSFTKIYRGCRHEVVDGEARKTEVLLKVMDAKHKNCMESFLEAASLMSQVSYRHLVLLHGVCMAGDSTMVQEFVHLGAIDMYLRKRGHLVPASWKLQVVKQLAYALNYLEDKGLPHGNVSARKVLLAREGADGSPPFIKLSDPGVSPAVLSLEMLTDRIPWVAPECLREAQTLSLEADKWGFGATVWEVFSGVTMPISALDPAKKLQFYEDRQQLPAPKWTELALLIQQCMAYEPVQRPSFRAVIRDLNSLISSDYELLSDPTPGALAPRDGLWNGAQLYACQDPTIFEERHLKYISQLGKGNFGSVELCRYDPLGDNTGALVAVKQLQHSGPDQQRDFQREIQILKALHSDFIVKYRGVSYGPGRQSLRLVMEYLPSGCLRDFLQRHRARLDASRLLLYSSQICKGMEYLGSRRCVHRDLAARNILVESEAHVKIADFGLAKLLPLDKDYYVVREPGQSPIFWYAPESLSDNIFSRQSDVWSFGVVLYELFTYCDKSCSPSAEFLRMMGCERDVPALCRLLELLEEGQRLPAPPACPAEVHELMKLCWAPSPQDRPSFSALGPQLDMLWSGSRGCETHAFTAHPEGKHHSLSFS

[6] = target: panel of more than 300 wild-type and mutant kinases (313 kinase panel) (Homo sapiens, UniProt P08581, Y1235D)
[7] = target: panel of more than 300 wild-type and mutant kinases (313 kinase panel) (Homo sapiens, UniProt P49137)
[8] = target: panel of more than 300 wild-type and mutant kinases (313 kinase panel) (Homo sapiens, UniProt Q08345)
[9] = target: panel of more than 300 wild-type and mutant kinases (313 kinase panel) (Homo sapiens, UniProt Q02750)
[10] = target: panel of more than 300 wild-type and mutant kinases (313 kinase panel) (Homo sapiens, UniProt P48729)
[11] = target: panel of more than 300 wild-type and mutant kinases (313 kinase panel) (Homo sapiens, UniProt Q9Y3S1)
[12] = target: panel of more than 300 wild-type and mutant kinases (313 kinase panel) (Homo sapiens, UniProt P49841)
[13] = target: panel of more than 300 wild-type and mutant kinases (313 kinase panel) (Homo sapiens, UniProt Q15303)
[14] = target: panel of more than 300 wild-type and mutant kinases (313 kinase panel) (Homo sapiens, UniProt P22607)
[15] = kinase MET(Y1235D), compound at 1 μM
[16] = kinase MAPKAPK2, compound at 1 μM
[17] = kinase MAP2K1, compound at 1 μM

Sequence of panel of more than 300 wild-type and mutant kinases (313 kinase panel) (Homo sapiens, UniProt P22455, V550E) (P22455 22-802 V550E): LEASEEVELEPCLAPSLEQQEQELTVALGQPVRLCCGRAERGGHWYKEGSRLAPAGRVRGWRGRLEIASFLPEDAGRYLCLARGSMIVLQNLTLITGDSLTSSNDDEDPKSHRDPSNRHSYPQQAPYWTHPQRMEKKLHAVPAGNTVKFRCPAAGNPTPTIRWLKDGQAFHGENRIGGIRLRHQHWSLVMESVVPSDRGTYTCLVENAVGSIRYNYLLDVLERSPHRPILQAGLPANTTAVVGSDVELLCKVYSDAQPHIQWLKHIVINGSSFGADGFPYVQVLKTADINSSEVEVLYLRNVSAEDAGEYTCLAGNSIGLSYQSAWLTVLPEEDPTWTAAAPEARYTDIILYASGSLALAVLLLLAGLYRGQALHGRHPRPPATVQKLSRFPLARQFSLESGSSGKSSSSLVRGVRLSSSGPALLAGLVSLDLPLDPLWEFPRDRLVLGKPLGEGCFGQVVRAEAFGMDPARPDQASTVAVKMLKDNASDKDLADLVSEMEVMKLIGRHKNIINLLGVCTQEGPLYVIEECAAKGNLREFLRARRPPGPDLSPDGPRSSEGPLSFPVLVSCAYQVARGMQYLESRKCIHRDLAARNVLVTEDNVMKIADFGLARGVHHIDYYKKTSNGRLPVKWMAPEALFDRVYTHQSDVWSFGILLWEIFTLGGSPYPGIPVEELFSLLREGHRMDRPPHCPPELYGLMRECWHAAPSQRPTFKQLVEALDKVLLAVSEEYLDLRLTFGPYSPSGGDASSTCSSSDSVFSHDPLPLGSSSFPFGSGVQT
Sequence of panel of more than 300 wild-type and mutant kinases (313 kinase panel) (Homo sapiens, UniProt P22607) (P22607 23-806, stated change not applied): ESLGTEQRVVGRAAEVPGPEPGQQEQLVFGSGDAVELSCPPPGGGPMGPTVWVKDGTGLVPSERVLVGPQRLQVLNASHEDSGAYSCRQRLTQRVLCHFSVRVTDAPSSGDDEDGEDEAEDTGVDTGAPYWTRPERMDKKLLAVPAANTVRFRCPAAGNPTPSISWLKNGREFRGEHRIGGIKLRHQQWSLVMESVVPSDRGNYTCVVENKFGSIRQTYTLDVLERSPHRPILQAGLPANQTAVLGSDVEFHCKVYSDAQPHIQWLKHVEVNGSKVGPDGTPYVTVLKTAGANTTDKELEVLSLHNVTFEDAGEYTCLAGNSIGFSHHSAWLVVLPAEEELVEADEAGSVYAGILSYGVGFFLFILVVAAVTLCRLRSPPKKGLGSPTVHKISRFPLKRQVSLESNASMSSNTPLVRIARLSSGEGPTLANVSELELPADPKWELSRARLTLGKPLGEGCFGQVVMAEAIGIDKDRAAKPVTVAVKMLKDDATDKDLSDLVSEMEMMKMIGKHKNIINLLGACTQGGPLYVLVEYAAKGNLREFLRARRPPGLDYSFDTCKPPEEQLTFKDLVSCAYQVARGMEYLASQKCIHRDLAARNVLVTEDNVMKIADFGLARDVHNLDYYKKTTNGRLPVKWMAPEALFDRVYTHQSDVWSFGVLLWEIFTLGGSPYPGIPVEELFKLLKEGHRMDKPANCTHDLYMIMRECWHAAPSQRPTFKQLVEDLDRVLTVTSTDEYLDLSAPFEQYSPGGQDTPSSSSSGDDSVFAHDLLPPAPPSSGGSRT
Sequence of panel of more than 300 wild-type and mutant kinases (313 kinase panel) (Homo sapiens, UniProt P49137) (P49137 whole entry, change not shown): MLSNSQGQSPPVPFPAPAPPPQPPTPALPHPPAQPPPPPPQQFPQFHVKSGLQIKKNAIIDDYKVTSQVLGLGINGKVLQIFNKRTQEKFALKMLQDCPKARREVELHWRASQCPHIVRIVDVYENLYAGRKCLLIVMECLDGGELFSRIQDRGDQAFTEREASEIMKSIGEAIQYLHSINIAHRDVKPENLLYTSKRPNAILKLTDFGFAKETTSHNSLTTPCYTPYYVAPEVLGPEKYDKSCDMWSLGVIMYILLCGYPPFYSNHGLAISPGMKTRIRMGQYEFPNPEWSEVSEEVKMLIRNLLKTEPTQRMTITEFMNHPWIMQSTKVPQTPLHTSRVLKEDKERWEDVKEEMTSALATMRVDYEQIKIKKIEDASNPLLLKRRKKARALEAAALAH
Sequence of panel of more than 300 wild-type and mutant kinases (313 kinase panel) (Homo sapiens, UniProt Q15303) (Q15303 26-1308, change not shown): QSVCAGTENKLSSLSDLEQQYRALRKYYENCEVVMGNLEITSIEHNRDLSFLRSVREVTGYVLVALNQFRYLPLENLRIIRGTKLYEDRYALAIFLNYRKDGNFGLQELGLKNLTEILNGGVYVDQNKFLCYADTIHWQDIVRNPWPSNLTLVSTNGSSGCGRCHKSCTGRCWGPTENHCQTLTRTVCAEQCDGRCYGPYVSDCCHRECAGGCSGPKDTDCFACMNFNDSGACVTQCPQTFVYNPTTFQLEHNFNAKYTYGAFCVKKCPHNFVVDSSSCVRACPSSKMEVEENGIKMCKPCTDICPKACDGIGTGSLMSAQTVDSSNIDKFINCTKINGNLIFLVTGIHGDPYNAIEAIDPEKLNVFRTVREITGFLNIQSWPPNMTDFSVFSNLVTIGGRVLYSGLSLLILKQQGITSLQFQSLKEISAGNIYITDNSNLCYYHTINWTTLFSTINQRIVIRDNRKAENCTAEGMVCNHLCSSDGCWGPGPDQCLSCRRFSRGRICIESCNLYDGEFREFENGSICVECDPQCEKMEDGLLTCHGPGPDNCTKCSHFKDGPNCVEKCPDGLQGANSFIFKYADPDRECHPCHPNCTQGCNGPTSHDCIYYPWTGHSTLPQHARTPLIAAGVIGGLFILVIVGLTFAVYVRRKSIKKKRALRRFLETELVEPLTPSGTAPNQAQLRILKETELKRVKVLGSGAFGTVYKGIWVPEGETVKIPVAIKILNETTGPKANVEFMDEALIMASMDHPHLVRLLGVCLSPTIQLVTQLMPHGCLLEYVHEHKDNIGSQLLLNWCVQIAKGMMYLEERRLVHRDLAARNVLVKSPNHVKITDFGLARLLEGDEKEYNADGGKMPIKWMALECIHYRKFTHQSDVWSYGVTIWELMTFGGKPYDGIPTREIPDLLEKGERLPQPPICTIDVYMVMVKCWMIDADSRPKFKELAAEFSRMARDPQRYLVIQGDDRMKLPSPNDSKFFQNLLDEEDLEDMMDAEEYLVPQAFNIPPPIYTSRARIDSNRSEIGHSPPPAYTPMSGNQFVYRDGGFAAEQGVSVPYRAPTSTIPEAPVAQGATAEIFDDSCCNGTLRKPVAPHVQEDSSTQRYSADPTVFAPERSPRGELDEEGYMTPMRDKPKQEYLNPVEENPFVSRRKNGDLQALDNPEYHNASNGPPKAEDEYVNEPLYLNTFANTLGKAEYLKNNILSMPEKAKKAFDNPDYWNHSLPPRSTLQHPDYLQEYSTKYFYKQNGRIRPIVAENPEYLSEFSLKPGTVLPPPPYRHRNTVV
Sequence of panel of more than 300 wild-type and mutant kinases (313 kinase panel) (Homo sapiens, UniProt P06241) (P06241 whole entry, change not shown): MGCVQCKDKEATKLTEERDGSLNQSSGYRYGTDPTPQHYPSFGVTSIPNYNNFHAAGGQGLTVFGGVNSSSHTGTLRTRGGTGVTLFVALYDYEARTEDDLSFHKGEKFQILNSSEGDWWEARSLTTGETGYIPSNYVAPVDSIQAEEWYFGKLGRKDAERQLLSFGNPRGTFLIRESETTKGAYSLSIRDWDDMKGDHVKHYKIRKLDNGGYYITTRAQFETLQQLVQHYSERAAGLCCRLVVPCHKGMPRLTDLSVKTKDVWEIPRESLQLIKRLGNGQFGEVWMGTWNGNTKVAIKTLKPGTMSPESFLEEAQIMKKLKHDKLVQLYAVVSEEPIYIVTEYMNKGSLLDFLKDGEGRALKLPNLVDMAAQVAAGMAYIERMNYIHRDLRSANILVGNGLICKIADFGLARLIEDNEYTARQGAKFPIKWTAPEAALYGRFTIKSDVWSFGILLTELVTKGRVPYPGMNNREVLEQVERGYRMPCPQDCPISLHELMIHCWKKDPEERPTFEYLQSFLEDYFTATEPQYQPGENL
Sequence of panel of more than 300 wild-type and mutant kinases (313 kinase panel) (Homo sapiens, UniProt Q16539) (Q16539 whole entry, stated change not applied): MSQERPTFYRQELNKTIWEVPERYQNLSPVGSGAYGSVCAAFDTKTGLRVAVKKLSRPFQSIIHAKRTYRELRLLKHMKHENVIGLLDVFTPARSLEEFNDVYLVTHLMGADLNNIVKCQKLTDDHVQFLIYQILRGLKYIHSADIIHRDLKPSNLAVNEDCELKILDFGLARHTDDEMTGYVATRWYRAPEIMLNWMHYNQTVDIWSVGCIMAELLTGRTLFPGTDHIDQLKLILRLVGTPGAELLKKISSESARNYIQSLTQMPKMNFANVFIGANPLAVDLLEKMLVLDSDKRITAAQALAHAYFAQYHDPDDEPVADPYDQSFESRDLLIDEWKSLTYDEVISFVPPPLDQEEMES

CO[C@H]1C[C@@H]2CC[C@@H](C)[C@@](O)(O2)C(=O)C(=O)N2CCCC[C@H]2C(=O)O[C@H]([C@H](C)C[C@@H]2CC[C@@H](OCCO)[C@H](OC)C2)CC(=O)[C@H](C)/C=C(\C)[C@@H](O)[C@@H](OC)C(=O)[C@H](C)C[C@H](C)/C=C/C=C/C=C/1C [everolimus]
%-inhibition of FYN ([1]; kinase FYN, compound at 1 μM): -0.928%
%-inhibition of p38α ([2]; kinase p38α, 1 μM): -4.27%
%-inhibition of FGFR4(V550E) [3]: -4.41%
%-inhibition of JAK1 ([4]; kinase JAK1, compound at 1 μM): -7%
%-inhibition of JAK3 ([5]; kinase JAK3, compound at 1 μM): -4.43%
%-inhibition of MET(Y1235D) [6, 15]: -5%
%-inhibition of MAPKAPK2 [7, 16]: -18%
%-inhibition of DDR1 ([8]; kinase DDR1, compound at 1 μM): -2.76%
%-inhibition of MAP2K1 [9, 17]: 7.5%
%-inhibition, CK1α ([10]; kinase CK1α, 1 μM compound): -11%
%-inhibition of WNK2 ([11]; kinase WNK2, compound at 1 μM): -8%
%-inhibition of GSK3β ([12]; kinase GSK3β, compound at 1 μM): -6%
%-inhibition of HER4 ([13]; kinase HER4, compound at 1 μM): -7%
%-inhibition of FGFR3 ([14]; kinase FGFR3, compound at 1 μM): -9%

CC(=O)Nc1cccc(-n2c(=O)n(C3CC3)c(=O)c3c(Nc4ccc(I)cc4F)n(C)c(=O)c(C)c32)c1 [trametinib]
%-inhibition of FYN ([1]; kinase FYN, compound at 1 μM): 9%
%-inhibition of p38α ([2]; kinase p38α, 1 μM): -4%
%-inhibition of FGFR4(V550E) [3]: -3.28%
%-inhibition of JAK1 ([4]; kinase JAK1, compound at 1 μM): -1.83%
%-inhibition of JAK3 ([5]; kinase JAK3, compound at 1 μM): 6%
%-inhibition of MET(Y1235D) [6, 15]: -1.5%
%-inhibition of MAPKAPK2 [7, 16]: -0.335%
%-inhibition of DDR1 ([8]; kinase DDR1, compound at 1 μM): -2%
%-inhibition of MAP2K1 [9, 17]: 99%
%-inhibition, CK1α ([10]; kinase CK1α, 1 μM compound): 3%
%-inhibition of WNK2 ([11]; kinase WNK2, compound at 1 μM): 1.45%
%-inhibition of GSK3β ([12]; kinase GSK3β, compound at 1 μM): -15%
%-inhibition of HER4 ([13]; kinase HER4, compound at 1 μM): 2.34%
%-inhibition of FGFR3 ([14]; kinase FGFR3, compound at 1 μM): -5.68%

O=S(=O)(c1cccc2cnccc12)N1CCCNCC1 [fasudil]
%-inhibition of FYN ([1]; kinase FYN, compound at 1 μM): 8.5%
%-inhibition of p38α ([2]; kinase p38α, 1 μM): -7%
%-inhibition of FGFR4(V550E) [3]: -2.85%
%-inhibition of JAK1 ([4]; kinase JAK1, compound at 1 μM): -1.43%
%-inhibition of JAK3 ([5]; kinase JAK3, compound at 1 μM): 4.46%
%-inhibition of MET(Y1235D) [6, 15]: -2.65%
%-inhibition of MAPKAPK2 [7, 16]: -13%
%-inhibition of DDR1 ([8]; kinase DDR1, compound at 1 μM): -1.19%
%-inhibition of MAP2K1 [9, 17]: 5.3%
%-inhibition of WNK2 ([11]; kinase WNK2, compound at 1 μM): 1.45%
%-inhibition of GSK3β ([12]; kinase GSK3β, compound at 1 μM): -8%
%-inhibition of HER4 ([13]; kinase HER4, compound at 1 μM): -0.227%
%-inhibition of FGFR3 ([14]; kinase FGFR3, compound at 1 μM): -2%

N#CC[C@H](C1CCCC1)n1cc(-c2ncnc3[nH]ccc23)cn1 [ruxolitinib]
%-inhibition of FYN ([1]; kinase FYN, compound at 1 μM): 11%
%-inhibition of p38α ([2]; kinase p38α, 1 μM): -2.16%
%-inhibition of FGFR4(V550E) [3]: 5%
%-inhibition of MET(Y1235D) ([6]; 1 µM): -0.936%
%-inhibition of MAPKAPK2 [7, 16]: -18%
%-inhibition of MAP2K1 [9, 17]: 11%
%-inhibition, CK1α ([10]; kinase CK1α, 1 μM compound): 1.86%
%-inhibition of WNK2 ([11]; kinase WNK2, compound at 1 μM): -4.57%
%-inhibition of GSK3β ([12]; kinase GSK3β, compound at 1 μM): 10%
%-inhibition of HER4 ([13]; 1 µM): -1.9%
%-inhibition of FGFR3 ([14]; kinase FGFR3, compound at 1 μM): 15%

CCCS(=O)(=O)Nc1ccc(F)c(C(=O)c2c[nH]c3ncc(-c4ccc(Cl)cc4)cc23)c1F [vemurafenib]
%-inhibition of FYN ([1]; kinase FYN, compound at 1 μM): 81%
%-inhibition of p38α ([2]; kinase p38α, 1 μM): 10%
%-inhibition of FGFR4(V550E) [3]: 1.79%
%-inhibition of JAK1 ([4]; kinase JAK1, compound at 1 μM): 46%
%-inhibition of JAK3 ([5]; kinase JAK3, compound at 1 μM): 10%
%-inhibition of MET(Y1235D) [6, 15]: 2.5%
%-inhibition of MAPKAPK2 [7, 16]: -16%
%-inhibition of DDR1 ([8]; kinase DDR1, compound at 1 μM): 52%
%-inhibition of MAP2K1 [9, 17]: 18%
%-inhibition, CK1α ([10]; kinase CK1α, 1 μM compound): -4.34%
%-inhibition of WNK2 ([11]; kinase WNK2, compound at 1 μM): 13%
%-inhibition of GSK3β ([12]; kinase GSK3β, compound at 1 μM): 8%
%-inhibition of HER4 ([13]; kinase HER4, compound at 1 μM): 11%
%-inhibition of FGFR3 ([14]; kinase FGFR3, compound at 1 μM): 15%

C#Cc1cccc(Nc2ncnc3cc(OCCOC)c(OCCOC)cc23)c1 [erlotinib]
%-inhibition of FYN ([1]; 1 µM): 34%
%-inhibition of p38α ([2]; 1 µM): -0.474%
%-inhibition of JAK1 ([4]; 1 µM): 8%
%-inhibition of JAK3 ([5]; 1 µM): 55%
%-inhibition of MET(Y1235D) ([6]; 1 µM): 22%
%-inhibition of MAPKAPK2 ([7]; 1 µM): 4.42%
%-inhibition of DDR1 ([8]; 1 µM): 93%
%-inhibition of MAP2K1 ([9]; 1 µM): 26%
%-inhibition, CK1α ([10]; 1 µM): 10%
%-inhibition of WNK2 ([11]; 1 µM): -7%
%-inhibition of GSK3β ([12]; 1 µM): -4.63%
%-inhibition of HER4 ([13]; 1 µM): 97%
%-inhibition of FGFR3 ([14]; 1 µM): 63%

Cc1cn(-c2cc(NC(=O)c3ccc(C)c(Nc4nccc(-c5cccnc5)n4)c3)cc(C(F)(F)F)c2)cn1 [nilotinib]
%-inhibition of FYN ([1]; kinase FYN, compound at 1 μM): 59%
%-inhibition of p38α ([2]; 1 µM): 92%
%-inhibition of JAK1 ([4]; 1 µM): 13%
%-inhibition of JAK3 ([5]; kinase JAK3, compound at 1 μM): 2.15%
%-inhibition of MET(Y1235D) [6, 15]: -4.56%
%-inhibition of MAPKAPK2 [7, 16]: 2.56%
%-inhibition of DDR1 ([8]; kinase DDR1, compound at 1 μM): 103%
%-inhibition of MAP2K1 [9, 17]: -8%
%-inhibition, CK1α ([10]; 1 µM): 2%
%-inhibition of WNK2 ([11]; kinase WNK2, compound at 1 μM): -8%
%-inhibition of GSK3β ([12]; kinase GSK3β, compound at 1 μM): 10%
%-inhibition of HER4 ([13]; 1 µM): 73%
%-inhibition of FGFR3 ([14]; kinase FGFR3, compound at 1 μM): -11%
